Tests used:
[1] = test system: diffuse large B-cell lymphoma (DLBCL) cell lines; assay: Pre-treatment model combination study with Cpd. No. 15 (7 days pre-treatment, then combination; Table G), CellTiter-Glo viability, Loewe Volume; conditions: 7 days pre-treatment with Cpd. No. 15, then combination; for Combination effect with Cpd. No. 15 (Loewe Volume class), Farage: cell line Farage (Cat. No. CRL-2630); for Combination effect with Cpd. No. 15 (Loewe Volume class), HT: cell line HT (Cat. No. CRL-2631); for Combination effect with Cpd. No. 15 (Loewe Volume class), OCILY7: cell line OCILY7 (Cat. No. ACC 688); for Combination effect with Cpd. No. 15 (Loewe Volume class), SUDHL4: cell line SUDHL4 (Cat. No. ACC 495)
[2] = test system: diffuse large B-cell lymphoma (DLBCL) cell lines; assay: Co-treatment combination study with Cpd. No. 15, further cell lines (Table F), CellTiter-Glo viability, Loewe Volume; assay type: cell-based; conditions: for Combination effect with Cpd. No. 15 (Loewe Volume class), Ri1: co-treatment with Cpd. No. 15, cell line Ri1 (Cat. No. 96090512-1VL); for Combination effect with Cpd. No. 15 (Loewe Volume class), TMD8: co-treatment with Cpd. No. 15, cell line TMD8 (Cat. No. M-097); for Combination effect with Cpd. No. 15 (Loewe Volume class), WILL1: co-treatment with Cpd. No. 15, cell line WILL1 (Cat. No. ACC 651)
How it was run: (§1)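 Viability after combined dosing was assessed through ATP content by CellTiter-Glo following a 7-day co-incubation of MCL or DLBCL cells with both compounds.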

RL = assay: Co-treatment combination study with Cpd. No. 15, CellTiter-Glo viability, Loewe Volume; assay type: cell-based; conditions: in combination with Cpd. No. 15; 6-Day Cotreatment; DLBCL cell line RL
SUDHL2 = assay: as above; assay type: cell-based; conditions: in combination with Cpd. No. 15, seven days, DLBCL cell line SUDHL2
How it was run: as §1

GRANTA519 = assay: as above; assay type: cell-based; conditions: in combination with Cpd. No. 15, seven days, mantle cell lymphoma cell line GRANTA519 (ACC 342)
How it was run: as §1

JEKO1 = assay: as above; assay type: cell-based; conditions: in combination with Cpd. No. 15, seven days, mantle cell lymphoma cell line JEKO1 (CRL-3006)
How it was run: as §1

SUDHL8 = assay: as above; assay type: cell-based; conditions: in combination with Cpd. No. 15, seven days, DLBCL cell line SUDHL8
How it was run: as §1

REC1 = assay: as above; assay type: cell-based; conditions: in combination with Cpd. No. 15, seven days, mantle cell lymphoma cell line REC1 (CRL-3004)
How it was run: as §1

Z138 = assay: as above; assay type: cell-based; conditions: in combination with Cpd. No. 15, seven days, mantle cell lymphoma cell line Z138 (CRL-3001)
How it was run: as §1

MAVER1 = assay: as above; assay type: cell-based; conditions: in combination with Cpd. No. 15, seven days, mantle cell lymphoma cell line MAVER1 (CRL-3008)
How it was run: as §1

SUDHL5 = assay: as above; assay type: cell-based; conditions: in combination with Cpd. No. 15, seven days, DLBCL cell line SUDHL5
How it was run: as §1

JVM2 = assay: as above; assay type: cell-based; conditions: in combination with Cpd. No. 15, seven days, mantle cell lymphoma cell line JVM2 (CRL-3002)
How it was run: as §1

DB = assay: as above; assay type: cell-based; conditions: in combination with Cpd. No. 15, seven days, DLBCL cell line DB
How it was run: as §1

DOHH2 = assay: as above; assay type: cell-based; conditions: in combination with Cpd. No. 15, seven days, DLBCL cell line DOHH2
How it was run: as §1

SUDHL6 = assay: as above; assay type: cell-based; conditions: in combination with Cpd. No. 15, seven days, DLBCL cell line SUDHL6
How it was run: as §1

SUDHL10 = assay: as above; assay type: cell-based; conditions: in combination with Cpd. No. 15; 5-Day Cotreatment; DLBCL cell line SUDHL10
KARPAS422 = assay: as above; assay type: cell-based; conditions: in combination with Cpd. No. 15, seven days, DLBCL cell line KARPAS422
How it was run: as §1

WSUDLCL2 = assay: as above; assay type: cell-based; conditions: in combination with Cpd. No. 15, seven days, DLBCL cell line WSUDLCL2
How it was run: as §1

Pfeiffer = assay: as above; assay type: cell-based; conditions: in combination with Cpd. No. 15, seven days, DLBCL cell line Pfeiffer
How it was run: as §1

MINO = assay: as above; assay type: cell-based; conditions: in combination with Cpd. No. 15, seven days, mantle cell lymphoma cell line MINO (CRL-3000)
How it was run: as §1

WILL2 = assay: as above; assay type: cell-based; conditions: in combination with Cpd. No. 15, seven days, DLBCL cell line WILL2
How it was run: as §1

WSUNHL = assay: as above; assay type: cell-based; conditions: in combination with Cpd. No. 15, seven days, DLBCL cell line WSUNHL
How it was run: as §1

HT = assay: as above; assay type: cell-based; conditions: in combination with Cpd. No. 15, seven days, DLBCL cell line HT
How it was run: as §1

TOLEDO = assay: as above; assay type: cell-based; conditions: in combination with Cpd. No. 15, seven days, DLBCL cell line TOLEDO
How it was run: as §1

SUDHL4 = assay: as above; assay type: cell-based; conditions: in combination with Cpd. No. 15, seven days, DLBCL cell line SUDHL4
How it was run: as §1

Structure (SMILES) | Combination effect with Cpd. No. 15 (Loewe Volume class), Farage [1] | Combination effect with Cpd. No. 15 (Loewe Volume class), HT [1] | Combination effect with Cpd. No. 15 (Loewe Volume class), OCILY7 [1] | Combination effect with Cpd. No. 15 (Loewe Volume class), SUDHL4 [1] | Combination effect with Cpd. No. 15 (Loewe Volume class), Ri1 [2] | Combination effect with Cpd. No. 15 (Loewe Volume class), TMD8 [2] | Combination effect with Cpd. No. 15 (Loewe Volume class), WILL1 [2] | Combination effect (Loewe Volume) RL (RL) | Combination effect (Loewe Volume) SUDHL2 (SUDHL2) | Combination effect (Loewe Volume) GRANTA519 (GRANTA519) | Combination effect (Loewe Volume) JEKO1 (JEKO1) | Combination effect (Loewe Volume) SUDHL8 (SUDHL8) | Combination effect (Loewe Volume) REC1 (REC1) | Combination effect (Loewe Volume) Z138 (Z138) | Combination effect (Loewe Volume) MAVER1 (MAVER1) | Combination effect (Loewe Volume) SUDHL5 (SUDHL5) | Combination effect (Loewe Volume) JVM2 (JVM2) | Combination effect (Loewe Volume) DB (DB) | Combination effect (Loewe Volume) DOHH2 (DOHH2) | Combination effect (Loewe Volume) SUDHL6 (SUDHL6) | further results
CC#CC(=O)N1CCC[C@H]1c1nc(-c2ccc(C(=O)Nc3ccccn3)cc2)c2c(N)nccn12 [Acalabrutinib, acalabrutinib] | Synergy (VLoewe>1: synergy) | No Effect | No Effect | No Effect | Synergy (VLoewe>1: synergy) | Synergy (VLoewe>1: synergy) | No Effect | No Effect | No Effect | Additivity (between 1 and −1: additivity) | Synergy (VLoewe>1: synergy) | No Effect | Additivity (between 1 and −1: additivity) | No Effect | Synergy (VLoewe>1: synergy) | No Effect | Additivity (between 1 and −1: additivity) | No Effect | No Effect | Synergy (VLoewe>1: synergy) | Combination effect with Cpd. No. 15 (Loewe Volume class), WILL2 ([1]; cell line WILL2 (Cat. No. ACC 652)): No Effect; Combination effect (Loewe Volume) SUDHL10 (SUDHL10): No Effect; Combination effect (Loewe Volume) KARPAS422 (KARPAS422): No Effect; Combination effect (Loewe Volume) WSUDLCL2 (WSUDLCL2): Additivity (between 1 and −1: additivity); Combination effect (Loewe Volume) Pfeiffer (Pfeiffer): No Effect; Combination effect (Loewe Volume) MINO (MINO): Synergy (VLoewe>1: synergy); Combination effect (Loewe Volume) WILL2 (WILL2): Additivity (between 1 and −1: additivity); Combination effect (Loewe Volume) WSUNHL (WSUNHL): No Effect; Combination effect (Loewe Volume) HT (HT): No Effect; Combination effect (Loewe Volume) TOLEDO (TOLEDO): No Effect; Combination effect (Loewe Volume) SUDHL4 (SUDHL4): No Effect
C=CC(=O)N1CCC([C@@H]2CCNc3c(C(N)=O)c(-c4ccc(Oc5ccccc5)cc4)nn32)CC1 [Zanubrutinib, zanubrutinib] | Synergy (VLoewe>1: synergy) | Synergy (VLoewe>1: synergy) | Synergy (VLoewe>1: synergy) | Synergy (VLoewe>1: synergy) | Synergy (VLoewe>1: synergy) | Synergy (VLoewe>1: synergy) | No Effect | No Effect | No Effect | Additivity (between 1 and −1: additivity) | Synergy (VLoewe>1: synergy) | No Effect | Additivity (between 1 and −1: additivity) | No Effect | Synergy (VLoewe>1: synergy) | No Effect | Additivity (between 1 and −1: additivity) | No Effect | Synergy (VLoewe>1: synergy) | Synergy (VLoewe>1: synergy) | Combination effect (Loewe Volume) SUDHL10 (SUDHL10): No Effect; Combination effect (Loewe Volume) KARPAS422 (KARPAS422): No Effect; Combination effect (Loewe Volume) WSUDLCL2 (WSUDLCL2): Additivity (between 1 and −1: additivity); Combination effect (Loewe Volume) Pfeiffer (Pfeiffer): No Effect; Combination effect (Loewe Volume) MINO (MINO): Synergy (VLoewe>1: synergy); Combination effect (Loewe Volume) WILL2 (WILL2): Additivity (between 1 and −1: additivity); Combination effect (Loewe Volume) WSUNHL (WSUNHL): Additivity (between 1 and −1: additivity); Combination effect (Loewe Volume) HT (HT): No Effect; Combination effect (Loewe Volume) TOLEDO (TOLEDO): Additivity (between 1 and −1: additivity); Combination effect (Loewe Volume) SUDHL4 (SUDHL4): Synergy (VLoewe>1: synergy)

Reference: patent publication US20240299352A1, “COMBINATION THERAPIES WITH SETD2 INHIBITORS” (Epizyme, Inc., priority 2021, published 2024)
